Assay results as given in paper PMC8636635 (Communications Biology, 2021).

Assays:
SARS-CoV-1 Protein E = SARS-CoV-1 Protein E (Severe acute respiratory syndrome-related coronavirus, UniProt P59637); assay type: cell-based
ORF7b = biological target: T1, ORF7b (Severe acute respiratory syndrome coronavirus 2, UniProt P0DTD8)
T1 construct: gene 7b

SARS-CoV-2 Protein E = SARS-CoV-2 Protein E (Severe acute respiratory syndrome coronavirus 2, UniProt P0DTC4); assay: two-electrode voltage clamp, X. laevis oocytes; conditions: read-out: % block at 10 μM
Sequence of SARS-CoV-2 Protein E (P0DTC4 whole entry): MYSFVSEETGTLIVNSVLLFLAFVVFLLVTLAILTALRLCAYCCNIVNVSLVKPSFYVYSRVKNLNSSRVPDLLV

Sequence of SARS-CoV-1 Protein E (P59637 whole entry, looked up): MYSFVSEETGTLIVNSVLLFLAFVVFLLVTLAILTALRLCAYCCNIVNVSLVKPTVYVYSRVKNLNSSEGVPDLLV
T1 sequence (P0DTD8 whole entry): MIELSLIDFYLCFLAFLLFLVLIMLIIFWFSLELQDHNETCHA

With `C1C2CC3CC1CC(C2)C3` [adamantane] the “% block” value (SARS-CoV-1 Protein E) was “adamantane that also blocked Protein E from SARS-CoV-1, but not that of SARS-CoV-2”.
In the case of `c1ccc2c(c1)Cc1ccccc1O2` [xanthene], the “% reduction in current at 10 μM” value (ORF7b) is reported as 47% and the inhibition at 10 µM (SARS-CoV-2 Protein E) is reported as 80%.
`N=C(N)NC(=O)c1nc(Cl)c(N2CCCCCC2)nc1N` [hexamethylene-amiloride] was tested, and the “% block” value (SARS-CoV-1 Protein E) was “HMA and emodin blocked the Protein E ion channels from both SARS-CoV-1 and -2” and the inhibition at 10 µM (SARS-CoV-2 Protein E) was 50%.
`Cc1cc(O)c2c(c1)C(=O)c1cc(O)cc(O)c1C2=O` [emodin] was tested, and the “% block” value (SARS-CoV-1 Protein E) was “HMA and emodin blocked the Protein E ion channels from both SARS-CoV-1 and -2”, the “% reduction in current at 10 μM” value (ORF7b) was 79% and the inhibition at 10 µM (SARS-CoV-2 Protein E) was 60%.
With `NC12CC3CC(CC(C3)C1)C2` [amantadine] the inhibition at 10 µM (SARS-CoV-2 Protein E) was 77%.
